Source: the supplement of paper PMC8960247
Structures can show the parent of a compound that is named as a salt. ± gives the standard error.

What was measured:
621-102 (TSC2-deficient) = assay: relative viability vs DMSO; higher = less cytotoxic; conditions: serum: 10% FBS, 72 h
621-103 (TSC2-rescued) = assay: as above; conditions: serum: 10% FBS, 72 h
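Note: immortalized renal angiomyolipoma cells stably carrying empty vector or TSC2, dosed in 384-well plates in DMEM, viability normalized to vehicle-treated wells within each plate.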

Compound | relative viability (621-102 (TSC2-deficient); 0.0001 µM) | relative viability (621-102 (TSC2-deficient); 0.001 µM) | relative viability (621-102 (TSC2-deficient); 0.01 µM) | relative viability (621-102 (TSC2-deficient); 0.1 µM) | relative viability (621-102 (TSC2-deficient); 1 µM) | relative viability (621-102 (TSC2-deficient); 10 µM) | relative viability (621-103 (TSC2-rescued); 0.0001 µM) | relative viability (621-103 (TSC2-rescued); 0.001 µM) | relative viability (621-103 (TSC2-rescued); 0.01 µM) | relative viability (621-103 (TSC2-rescued); 0.1 µM) | relative viability (621-103 (TSC2-rescued); 1 µM) | relative viability (621-103 (TSC2-rescued); 10 µM)
O=C(Nc1ccc(OC(F)(F)F)cc1)c1sccc1NCc1ccnc2ccccc12 [OSI-930] | 84 ± 2.4% | 116 ± 2.3% | 114 ± 4.7% | 111.7 ± 0.23% | 112 ± 1.4% | 108 ± 5% | 95.6 ± 0.43% | 106 ± 1.1% | 108 ± 3.1% | 108 ± 1.7% | 103 ± 1.7% | 100.9 ± 0.9%
CN1C(C(=O)Nc2ccccn2)=C(O)c2ccccc2S1(=O)=O [Piroxicam] | 98.4 ± 3.2% | 105 ± 8.5% | 111.3 ± 0.51% | 109 ± 4.4% | 103 ± 1.4% | 104 ± 9.8% | 110 ± 3% | 125 ± 2.3% | 126 ± 3.5% | 119.6 ± 0.1% | 112 ± 5% | 116.42 ± 0.082%
N#CC(=C(/N)Sc1ccccc1N)/C(C#N)=C(\N)Sc1ccccc1N [U0126-EtOH] | 105 ± 3.4% | 103 ± 1.3% | 103 ± 2.5% | 103 ± 1.1% | 99.47 ± 0.83% | 93.3 ± 4.4% | 105 ± 2.4% | 101 ± 1.1% | 99.9 ± 1.5% | 101 ± 2% | 100.6 ± 0.44% | 90.4 ± 1.6%
COc1ccc([C@]2(C#N)CC[C@@H](C(=O)O)CC2)cc1OC1CCCC1 | 96.5 ± 2.4% | 102.9 ± 0.13% | 95.4 ± 2.6% | 102 ± 2.7% | 105 ± 1.7% | 98.6 ± 0.28% | 102.2 ± 0.093% | 98 ± 0.98% | 97.1 ± 1.8% | 106.2 ± 0.53% | 93.85 ± 0.76% | 93.4 ± 2.3%
CCCNC(=O)Nc1ccc(Oc2ncnc3cc(OC)c(OC)cc23)cc1Cl [KRN 633] | 84.4 ± 4.7% | 119 ± 2.7% | 104 ± 12% | 94.6 ± 3.8% | 100 ± 2.7% | 102 ± 1.3% | 85.6 ± 4.4% | 95.9 ± 4.2% | 100 ± 3% | 96.9 ± 1.9% | 90.3 ± 3.6% | 99.8 ± 3.4%
CN(C)C(=O)[C@H](O)[C@H](Cc1ccccc1)NC(=O)c1cc2cc(Cl)ccc2[nH]1 | 103 ± 1.9% | 94.3 ± 1% | 111 ± 2.4% | 110 ± 5.4% | 89.6 ± 3.6% | 111.8 ± 0.78% | 112.8 ± 0.78% | 108 ± 2.3% | 108.2 ± 0.39% | 106 ± 1.7% | 106 ± 1.5% | 104 ± 1.8%
COC(=O)C1=C(C)NC(C)=C(C(=O)OCC(C)C)C1c1ccccc1[N+](=O)[O-] (stereo not drawn) [Nisoldipine] | 100 ± 4.6% | 95.6 ± 4.7% | 104.6 ± 0.62% | 106.7 ± 0.045% | 111 ± 2.9% | 65.91 ± 0.65% | 110 ± 5.8% | 109 ± 7.6% | 108 ± 4% | 111 ± 6.1% | 100 ± 2.3% | 67.8 ± 4.5%
CCS(=O)(=O)Nc1ccc2c(c1)/C(=C(/Nc1ccc(CN3CCCCC3)cc1)c1ccccc1)C(=O)N2 [Hesperadin] | 105 ± 6.1% | 95.5 ± 3.5% | 77.4 ± 2.1% | 85.2 ± 1.8% | 59.2 ± 1.9% | 2.25 ± 0.32% | 100 ± 3.2% | 93.1 ± 1.2% | 97.46 ± 0.18% | 85.6 ± 0.14% | 42.75 ± 0.27% | 3.8 ± 0.2%
CC1=C2C[C@H]3[C@@H](CC=C4C[C@@H](O)CC[C@@]43C)[C@@H]2CC[C@]12O[C@@H]1C[C@H](C)CN[C@H]1[C@H]2C [Cyclopamine] | 107 ± 4% | 95.64 ± 0.15% | 99.7 ± 0.74% | 103 ± 1.3% | 112.9 ± 0.35% | 95.49 ± 0.81% | 100 ± 1.7% | 101 ± 1.4% | 98.16 ± 0.86% | 100.3 ± 0.2% | 99.22 ± 0.46% | 98.9 ± 2.2%
COc1ccc(-c2ccc3c(N4CCOC[C@@H]4C)nc(N4CCOC[C@@H]4C)nc3n2)cc1CO [AZD8055] | 80 ± 3.1% | 86.2 ± 2.7% | 66.51 ± 0.58% | 39.8 ± 0.67% | 21.4 ± 2.2% | 19 ± 0.54% | 90.4 ± 3.3% | 81.1 ± 4.3% | 69 ± 0.95% | 48.4 ± 0.71% | 34.6 ± 0.72% | 34.3 ± 1.4%
Cn1cc(/C=C/C(=O)c2cccc(F)c2)cc1/C=C/C(=O)NO [MC1568] | 109.3 ± 0.42% | 106.9 ± 0.32% | 103 ± 7.3% | 104 ± 2.1% | 98.5 ± 4.7% | 102.6 ± 0.25% | 99.97 ± 0.52% | 98 ± 1% | 99.34 ± 0.99% | 98.5 ± 1.1% | 100 ± 1.3% | 101 ± 1.5%
CC(=O)O[C@H]1C[C@@H]2CC[C@@H]3[C@H](CC[C@@]4(C)[C@H]3C[C@H]([N+]3(C)CCCCC3)[C@@H]4OC(C)=O)[C@@]2(C)C[C@@H]1[N+]1(C)CCCCC1 [Pancuronium bromide] | 83.8 ± 6.4% | 95.36 ± 0.26% | 93.6 ± 3.5% | 91.4 ± 3.3% | 84.1 ± 1.2% | 52.5 ± 0.78% | 97.7 ± 0.99% | 104 ± 1.3% | 101 ± 2.5% | 95 ± 3.6% | 93.8 ± 4.2% | 51.35 ± 0.38%
C/C(=C\c1csc(C)n1)[C@@H]1C[C@@H]2O[C@@H]2CCC[C@H](C)[C@H](O)[C@@H](C)C(=O)C(C)(C)[C@@H](O)CC(=O)O1 [Epothilone A] | 63.5 ± 3% | 47 ± 4% | 31.1 ± 0.38% | 27.3 ± 1.1% | 30.4 ± 0.53% | 34.2 ± 0.53% | 87.3 ± 1.9% | 59.1 ± 2.4% | 44 ± 1.4% | 30.8 ± 0.67% | 26.7 ± 0.62% | 50.59 ± 0.26%
C[C@@](Cc1ccc(O)c(O)c1)(NN)C(=O)O [Carbidopa] | 97.3 ± 3.2% | 104 ± 5.4% | 90.03 ± 0.71% | 103 ± 1.6% | 99.6 ± 2.6% | 89.7 ± 1.3% | 92 ± 1.9% | 103.2 ± 0.12% | 93.7 ± 2.5% | 107 ± 2.1% | 104 ± 4.8% | 92.1 ± 1.4%
CC/C(=C(\c1ccccc1)c1ccc(OCCN(C)C)cc1)c1ccccc1 [Tamoxifen Citrate] | 102.7 ± 0.75% | 98.8 ± 1.8% | 111 ± 2.6% | 98.76 ± 0.6% | 100.8 ± 1% | 80.9 ± 5.2% | 101 ± 3.6% | 102 ± 3.1% | 104 ± 5.2% | 101 ± 2.4% | 107 ± 3.5% | 48.1 ± 2.6%
C[C@H](Cn1cnc2c(N)ncnc21)OCP(=O)(O)O [Tenofovir] | 66.9 ± 0.97% | 73.2 ± 1.9% | 75.6 ± 11% | 71.7 ± 5% | 70.8 ± 6.7% | 60.2 ± 5.8% | 102 ± 5.5% | 102 ± 1.9% | 103 ± 5.3% | 109 ± 4.2% | 94 ± 7.9% | 92.6 ± 4.3%
CNCCCC12CCC(c3ccccc31)c1ccccc12 [Maprotiline HCl] | 124.2 ± 0.15% | 114 ± 4.2% | 109 ± 5.4% | 107 ± 3.5% | 107.1 ± 0.36% | 82.2 ± 3.8% | 101 ± 1.2% | 102 ± 1.2% | 99.43 ± 0.5% | 95.4 ± 4.2% | 87.6 ± 2.2% | 64.61 ± 0.13%
O=C1N=C(O)NC1(c1ccccc1)c1ccccc1 [Phenytoin sodium] | 121 ± 4.2% | 90.6 ± 8.7% | 94.9 ± 4.7% | 86.6 ± 2.5% | 92 ± 6% | 100.3 ± 0.98% | 105 ± 2.1% | 105.8 ± 0.97% | 100 ± 2.4% | 101 ± 2.9% | 94.54 ± 0.49% | 101.8 ± 0.76%
CN1[C@@H]2CC[C@H]1C[C@@H](OC(=O)C(CO)c1ccccc1)C2 (stereo partly drawn) [Atropine sulfate monohydrate] | 64.6 ± 5.9% | 79 ± 1.7% | 83.3 ± 5.4% | 79.6 ± 6.8% | 70.8 ± 5.3% | 63.6 ± 6.5% | 80.5 ± 7% | 92.1 ± 8.5% | 105 ± 6.5% | 97.9 ± 6.4% | 89.9 ± 3.7% | 80.3 ± 5%
